Data taken from US11649228B2, “Zinc indicators for cellular imaging” (The Board of Regents of the University of Texas System, priority 2018, dated 2023).
Where two headings read alike, the source gives them in different places.

Legend:
[1] = Table 2, previously reported sensors, cited from earlier work; for Kd: read-out: Kd(Zn^2+)
[2] = Zn^2+ titration of ZIGIRs by fluorescence emission (Hill plot); format: binding
Experimental: (§1) UV-Vis spectra were recorded in a 1-cm path quartz cell on a Shimadzu 2401 PC spectrometer. Fluorescence excitation and emission spectra were recorded on a Fluorolog 3 spectrometer (Jobin-Yvon Horiba, Edison, N.J.). Zinc titration was performed by adding ZIGIRs (0.5 μM final concentration) to buffered Zn^2+ solutions containing 100 mM HEPES (pH 7.4). Nitrilotriacetic acid (NTA, 10 mM) and varying concentrations of ZnSO4 (0-9 mM) were mixed to reach free Zn^2+ concentrations between 0.1 nM and 40 nM (Li et al., 2011). Zn^2+ concentrations above 40 nM were controlled by iminodiacetate (IDA, 10 mM) and varying amounts of ZnSO4 (0-9.7 mM) in 100 mM HEPES (pH 7.4; Sasaki et al., 2011). To determine Zn^2+ binding dissociation constants (Kd(Zn^2+)), the Zn^2+ titration data were fitted to the least square exponential equation (Prism 7). Fluorescence quantum yields of ZIGIRs at pH 7.5 were determined using rhodamine 6G as the reference (Φfl=0.94 in MeOH; Magde et al., 2002). An example in shown FIGS. 11A0B. To examine the pH sensitivity of ZIGIRs, the fluorescence emission spectra was recorded from pH 3-9.4 in either nominally Zn^2+-free solutions containing 5 mM iminodiacetate or in 25 μM ZnSO4 solutions. The pH was controlled with 10 mM pH buffers including chloroacetic acid (pH 3.1), acetate (pH 4.1 and 5.0), 2-morpholinoethanesulfonic acid (MES, pH 6.14), HEPES (pH 7.5) and N-cyclohexyl-2-aminoethanesulfonic acid (CHES, pH 9.4).

[3] = Photochemical characterization of ZIGIRs in vitro (absorption, emission, quantum yield); format: physicochemical; details: for ε (extinction coefficient): in M-1·cm-1 (unit assumed); for ϕfl × ε (fluorescence brightness): in M^-1 cm^-1 (unit assumed); for fluorescence quantum yield: Zn^2+-bound state
Experimental: as §1

[4] = pH sensitivity of ZIGIR fluorescence; format: physicochemical; details: same Zn^2+ level
Experimental: as §1, with “The pH was controlled with 10 mM pH buffers including chloroacetic acid (pH 3.1), acetate (pH 4.1 and 5.0), 2-morpholinoethanesulfonic acid (MES, pH 6.14), HEPES (pH 7.5) and N-cyclohexyl-2-aminoethanesulfonic acid (CHES, pH 9.4).” left out

[5] = Metal ion selectivity of fluorescence response; format: physicochemical; details: 1 μM sensor, 10 μM TPEN; against Na^+, K^+, Ca^2+, Mg^2+, Fe^2+, Ni^2+, Co^2+, Cu^2+, Mn^2+
Experimental: To study the metal selectivity, the fluorescence of ZIGIR-1 (1 μM) or ZIGIR-2 (1 μM) was measured in the presence of 10 μM TPEN and an excess of metal ion including 1 mM KCl, 1 mM NaCl, 1 mM CaSO4, 1 mM MgSO4, 15 μM MnSO4, 15 μM FeSO4, 15 μM NiSO4, 15 μM CoCl2, 15 μM CuSO4, 15 μM CdSO4 or 15 μM ZnSO4. The emission intensity was normalized to that of 15 μM ZnSO4 (100%).

SMILES: COc1ccc(N(CC(=O)O)CC(=O)O)c(OCCOc2cc(-c3c4cc(F)c(=O)cc-4oc4cc(O)c(F)cc34)ccc2NCC(=O)O)c1 [FluoZin-3]
- Zn^2+ response (fold change) [1]: >100×
- Kd [1]: 15 nM

SMILES: Cc1cc2c(c(CN(Cc3ccccn3)Cc3cnccn3)c1)OC1(CC2)C(C)c2ccccc2N1C (centres unmarked) [SpiroZin2]
- Zn^2+ response (fold change) [1]: 8×
- Kd [1]: 3.6 nM

SMILES: CN=c1ccc2c(-c3ccc(NCCN(CCc4ccccn4)Cc4ccccn4)cc3C(=O)O)c3ccc(NC)cc3oc-2c1 [ZIGIR-1]
- FC (fold change in fluorescence brightness ϕfl×ε from Zn^2+-free to Zn^2+-bound state) [2]: 50
- fluorescence enhancement upon Zn^2+ binding [2]: 50 fold
- Kd ([2]; 100 mM HEPES pH 7.4): 290 nM
- absorption maximum [3]: ~520 nm
- bathochromic shift in absorption maximum from Zn^2+-free to Zn^2+-bound state [3]: 4 nm
- λabd^max ([3]; Zn^2+ bound): 521 nm
- λem^max ([3]; Zn^2+ bound): 543 nm
- ϕfl (fluorescence quantum yield) ([3]; Zn^2+ bound): 0.30
- ε (extinction coefficient) ([3]; Zn^2+ bound): 112,000
- ϕfl × ε (fluorescence brightness) ([3]; Zn^2+ bound): 33,600
- λabd^max ([3]; Zn^2+ free): 517 nm
- λem^max ([3]; Zn^2+ free): 547 nm
- ϕfl (fluorescence quantum yield) ([3]; Zn^2+ free): 0.008
- ε (extinction coefficient) ([3]; Zn^2+ free): 85,200
- ϕfl × ε (fluorescence brightness) ([3]; Zn^2+ free): 682
- fluorescence quantum yield [3]: 30%
- fluorescence signal at pH 7.5 versus pH 5.0 [4]: essentially the same fluorescence signal
- selectivity of fluorescence response for Zn^2+ [5]: selective for Zn^2+

SMILES: CCN(CC)c1ccc2c(-c3ccc(NCCN(CCc4ccccn4)Cc4ccccn4)cc3C(=O)[O-])c3ccc(=[N+](CC)CC)cc-3oc2c1 [ZIGIR-3]
- absorption maximum [3]: around 555 nm
- emission maximum [3]: ~580 nm
- fluorescence quantum yield [3]: 18%

SMILES: COc1cc(O)c(-c2nc3c(CNCc4ccccn4)cccc3o2)cc1OC [ZINbo-5]
- Kd [1]: 2.2 nM
